Patent publication US20080293696A1, “2-Aminoarylcarboxamides Useful as Cancer Chemotherapeutic Agents” (Bayer Pharmaceuticals Corporation, priority 2004, published 2008)

Test system: PAKT/PKB (p-(S473) AKT) in H209 small cell lung carcinoma cells stimulated with Stem Cell Factor
Test: PAKT/PKB Cytoblot Assay with H209 cells (SCF-stimulated p-(S473) AKT)
Type: cell-based
Details: Homo sapiens, NCI-H209, compound 1 hour, SCF 25 ng/mL 5 minutes
Description: PAKT/PKB Cytoblot Assay Protocol with H209 Cells
H209 small cell lung carcinoma cells in log phase were plated at 50,000 cells/well in 96-well poly-lysine coated, clear bottom/black-sided plates (BD Cat # 354640) in 100 μl RPMI medium containing 0.1% (w/v) BSA, and incubated overnight at 37° C. in 5% CO2 incubator. The following day, compounds (10 mM stock solutions in DMSO) were added to the plates to generate final concentrations of 0.0, 0.01, 0.03, 0.1, 0.3, 1.0, 3.0 and 10 μM for IC50 determinations and incubated for 1 hour at 37° C. Cells were then left untreated or stimulated with Stem Cell Factor (SCF: Biosource Cat # PHC2116) at a final concentration of 25 ng/mL for 5 minutes at 37° C. in 5% CO2 incubator. The media was then removed using a vacuum manifold and the cells were washed once with Tris Buffered Saline (TBS).
Cells were then fixed by adding 200 μl of cold 3.7% (v/v) formaldehyde in TBS to each well for 15 minutes at 4° C. After removal of the formaldehyde, the cells were treated with the addition of 50 μl of methanol (at −20° C.) to each well for 5 minutes. After removal of the methanol, […] of 1% (w/v) BSA in TBS was added to each well to block non-specific antibody binding sites and the plate was incubated at room temperature for 30 minutes.
After removal of the blocking buffer, 50 μl of p-(S473) AKT rabbit polyclonal antibody (Cell Signaling Cat # 9277S) was added at a dilution of 1:250 in 0.1% (w/v) BSA in TBS, and the plate was incubated at room temperature for 1 hour. Plates were then washed 3 times with cold TBS containing 0.05% (v/v) Tween 20 (TBS-T) and […] of Horseradish peroxidase (HRP)-conjugated goat-anti-rabbit antibody (Amersham Cat # NA934V) at a dilution of 1:250 in TBS-T was added and the plate was incubated at room temperature for 1 h. After washing with ice-cold TBS-T four times, 100 μl of Enhanced Chemiluminescence (ECL) reagent (Amersham Cat# RPN2209) was added to each well and mixed on a mini-orbital shaker for 1 min. The plate was then read on a Perkin Elmer Victor 5 Multilabel Counter (#1420-0421).

[1] = group: between 500 nM and 1 μM (units in value)

| SMILES | IC50 (group: less than 500 nM) | also measured |
| --- | --- | --- |
| O=C(Nc1ccc2c(c1)C(F)(F)OC(F)(C(F)(F)F)O2)c1cccnc1NCc1ccncc1 (centres unmarked) [Example 16, 2-[(Pyridin-4-ylmethyl)amino]-N-[2,4,4-trifluoro-2-(trifluoromethyl)-4H-1,3-benzodioxin-6-yl]nicotinamide] |  | IC50 [1]: 500 to 1000 nM |
| N#Cc1cc(CNc2ccccc2C(=O)Nc2ccc3c(c2)OC(F)(F)C(F)(F)O3)ccn1 [Example 22, 2-{[(2-cyanopyridin-4-yl)methyl]amino}-N-(2,2,3,3-tetrafluoro-2,3-dihydro-1,4-benzodioxin-6-yl)benzamide] | < 500 nM |  |
| N#Cc1cc(CNc2ccccc2C(=O)Nc2ccc3c(c2)C(F)(F)OC(F)(F)O3)ccn1 [Example 23, 2-{[(2-cyanopyridin-4-yl)methyl]amino}-N-(2,2,4,4-tetrafluoro-4H-1,3-benzodioxin-6-yl)benzamide] | < 500 nM |  |
| CNC(=O)c1cc(CNc2ccccc2C(=O)Nc2ccc3c(c2)OC(F)(F)O3)ccn1 [Example 24, 4-{[(2-{[(2,2-difluoro-1,3-benzodioxol-5-yl)amino]carbonyl}phenyl)amino]methyl}-N-methylpyridine-2-carboxamide] | < 500 nM |  |
| N#Cc1cc(CNc2ccccc2C(=O)Nc2ccc3c(c2)OC(F)(F)O3)ccn1 [Example 25, 2-{[(2-cyanopyridin-4-yl)methyl]amino}-N-(2,2-difluoro-1,3-benzodioxol-5-yl)benzamide] | < 500 nM |  |
| Cc1cc(CNc2ccccc2C(=O)Nc2ccc3c(c2)OC(F)(F)C(F)(F)O3)nc(Cl)n1 [Example 26, 2-{[(2-chloro-6-methylpyrimidin-4-yl)methyl]amino}-N-(2,2,3,3-tetrafluoro-2,3-dihydro-1,4-benzodioxin-6-yl)benzamide] |  | IC50 (group: between 1 and 3 μM): 1000 to 3000 nM |
| N#Cc1cc(CNc2ccc(F)cc2C(=O)Nc2ccc3c(c2)OC(F)(F)C(F)(F)O3)ccn1 [Example 27, 2-{[(2-cyanopyridin-4-yl)methyl]amino}-5-fluoro-N-(2,2,3,3-tetrafluoro-2,3-dihydro-1,4-benzodioxin-6-yl)benzamide] |  | IC50 (group: between 1 and 3 μM): 1000 to 3000 nM |
| N#Cc1cc(CNc2cc(F)ccc2C(=O)Nc2ccc3c(c2)OC(F)(F)C(F)(F)O3)ccn1 [Example 28, 2-{[(2-cyanopyridin-4-yl)methyl]amino}-4-fluoro-N-(2,2,3,3-tetrafluoro-2,3-dihydro-1,4-benzodioxin-6-yl)benzamide] |  | IC50 [1]: 500 to 1000 nM |

Now from value to compound, other results behind:

| IC50 (group: less than 500 nM) | SMILES | also measured |
| --- | --- | --- |
| < 500 nM | O=C(Nc1ccc2c(c1)OC(F)(F)O2)c1cccnc1NCc1ccncc1 [Example 15, N-(2,2-difluoro-1,3-benzodioxol-5-yl)-2-[(pyridin-4-ylmethyl)amino]nicotinamide] |  |
| < 500 nM | O=C(Nc1ccc2c(c1)OC(F)(F)C(F)(F)O2)c1ncccc1NCc1ccncc1 [Example 17, 3-[(Pyridin-4-ylmethyl)amino]-N-(2,2,3,3-tetrafluoro-2,3-dihydro-1,4-benzodioxin-6-yl)pyridine-2-carboxamide] |  |
| < 500 nM | O=C(Nc1ccc2c(c1)OC(F)(F)C(F)(F)O2)c1ccc(F)cc1NCc1ccncc1 [Example 18, 4-fluoro-2-[(pyridin-4-ylmethyl)amino]-N-(2,2,3,3-tetrafluoro-2,3-dihydro-1,4-benzodioxin-6-yl)benzamide] |  |
| < 500 nM | O=C(Nc1ccc2c(c1)OC(F)(F)C(F)(F)O2)c1cc(F)ccc1NCc1ccncc1 [Example 19, 5-fluoro-2-[(pyridin-4-ylmethyl)amino]-N-(2,2,3,3-tetrafluoro-2,3-dihydro-1,4-benzodioxin-6-yl)benzamide] |  |
| < 500 nM | O=C(Nc1ccc2c(c1)OC(F)(F)O2)c1cc(F)ccc1NCc1ccncc1 [Example 20, N-(2,2-difluoro-1,3-benzodioxol-5-yl)-5-fluoro-2-[(pyridin-4-ylmethyl)amino]benzamide] |  |
| < 500 nM | O=C(Nc1ccc2c(c1)OC(F)(F)O2)c1ccc(F)cc1NCc1ccncc1 [Example 21, N-(2,2-difluoro-1,3-benzodioxol-5-yl)-4-fluoro-2-[(pyridin-4-ylmethyl)amino]benzamide] |  |
